Laboratory results: the kinase profiling compilation of Christmann-Franck et al. (2016)

What was measured:
Assay in all cases: KINOMEscan competition binding
Settings in all cases: compound 10.0 µM
[1] = target: MELK (human) (UniProt Q14680)
[2] = test system: KIT (human), P10721 [V559D/V654A]
[3] = target: STK38 (human) (UniProt Q15208)
[4] = target: RPS6KA4 KD2 (human) (UniProt O75676)
[5] = target: ACVR1 (human) (UniProt Q04771)
[6] = target: HIPK2 (human) (UniProt Q9H2X6)
[7] = target: NEK2 (human) (UniProt P51955)
[8] = target: MAPKAPK2 (human) (UniProt P49137)
[9] = target: EPHB2 (human) (UniProt P29323)
[10] = target: SGK110 (human) (UniProt P0C264)
SGK110 (human), sequence (P0C264 whole entry, looked up): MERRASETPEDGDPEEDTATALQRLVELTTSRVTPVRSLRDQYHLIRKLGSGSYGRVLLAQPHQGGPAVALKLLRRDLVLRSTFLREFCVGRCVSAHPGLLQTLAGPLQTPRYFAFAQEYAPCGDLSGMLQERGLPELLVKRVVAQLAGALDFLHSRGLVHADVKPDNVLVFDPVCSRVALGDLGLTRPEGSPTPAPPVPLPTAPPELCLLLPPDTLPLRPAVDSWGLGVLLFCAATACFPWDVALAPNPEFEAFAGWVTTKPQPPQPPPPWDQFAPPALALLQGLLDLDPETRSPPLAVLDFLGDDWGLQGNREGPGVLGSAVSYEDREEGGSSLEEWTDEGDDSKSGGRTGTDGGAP

[11] = target: PIM3 (human) (UniProt Q86V86)
[12] = target: DMPK (human) (UniProt Q09013)
DMPK (human), sequence (Q09013 whole entry, looked up): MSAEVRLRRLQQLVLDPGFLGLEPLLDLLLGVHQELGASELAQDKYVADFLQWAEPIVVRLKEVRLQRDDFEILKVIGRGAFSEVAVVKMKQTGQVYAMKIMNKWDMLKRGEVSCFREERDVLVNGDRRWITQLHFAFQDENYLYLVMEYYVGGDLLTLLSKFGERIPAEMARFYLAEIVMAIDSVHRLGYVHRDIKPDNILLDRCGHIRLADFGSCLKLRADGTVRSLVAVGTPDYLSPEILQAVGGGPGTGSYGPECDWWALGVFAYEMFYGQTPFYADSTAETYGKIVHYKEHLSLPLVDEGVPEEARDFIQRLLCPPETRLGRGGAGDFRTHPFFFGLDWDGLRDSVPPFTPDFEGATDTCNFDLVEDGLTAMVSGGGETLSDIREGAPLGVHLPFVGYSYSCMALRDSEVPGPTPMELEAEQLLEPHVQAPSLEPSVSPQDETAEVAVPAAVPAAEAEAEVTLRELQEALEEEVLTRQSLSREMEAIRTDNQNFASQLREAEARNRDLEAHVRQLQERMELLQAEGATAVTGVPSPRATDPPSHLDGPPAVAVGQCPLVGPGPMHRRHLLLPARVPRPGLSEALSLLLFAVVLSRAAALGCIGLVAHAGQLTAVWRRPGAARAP

[13] = target: MYO3A (human) (UniProt Q8NEV4)
[14] = target: IRAK4 (human) (UniProt Q9NWZ3)
IRAK4 (human), sequence (Q9NWZ3 whole entry, looked up): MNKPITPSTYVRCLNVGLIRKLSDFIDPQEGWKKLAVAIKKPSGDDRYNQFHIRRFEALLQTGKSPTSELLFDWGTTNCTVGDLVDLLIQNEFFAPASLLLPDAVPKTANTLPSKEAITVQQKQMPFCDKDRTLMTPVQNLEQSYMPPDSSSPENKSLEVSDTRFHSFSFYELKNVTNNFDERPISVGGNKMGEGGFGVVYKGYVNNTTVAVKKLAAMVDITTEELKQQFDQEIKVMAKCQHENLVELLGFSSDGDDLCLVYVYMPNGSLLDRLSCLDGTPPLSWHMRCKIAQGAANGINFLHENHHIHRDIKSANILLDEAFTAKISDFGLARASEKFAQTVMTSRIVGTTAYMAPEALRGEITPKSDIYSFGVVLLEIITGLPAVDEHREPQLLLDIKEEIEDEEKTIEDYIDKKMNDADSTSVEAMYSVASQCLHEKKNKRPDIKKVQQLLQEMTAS

[15] = target: ERN1 (human) (UniProt O75460)
[16] = target: RPS6KA4 KD1 (human) (UniProt O75676)
[17] = target: MARK1 (human) (UniProt Q9P0L2)
[18] = target: NTRK1 (human) (UniProt P04629)
[19] = target: MAPK11 (human) (UniProt Q15759)
MAPK11 (human), sequence (Q15759 whole entry, looked up): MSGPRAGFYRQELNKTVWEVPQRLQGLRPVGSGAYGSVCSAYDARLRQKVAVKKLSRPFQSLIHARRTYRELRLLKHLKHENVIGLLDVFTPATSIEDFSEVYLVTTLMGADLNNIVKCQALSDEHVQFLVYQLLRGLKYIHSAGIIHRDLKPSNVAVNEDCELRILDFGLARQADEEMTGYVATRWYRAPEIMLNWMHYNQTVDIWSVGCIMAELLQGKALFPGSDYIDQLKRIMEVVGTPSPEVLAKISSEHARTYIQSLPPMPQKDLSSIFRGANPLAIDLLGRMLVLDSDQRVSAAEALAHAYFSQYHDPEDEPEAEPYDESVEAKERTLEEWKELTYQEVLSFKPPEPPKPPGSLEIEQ

[20] = target: DDR1 (human) (UniProt Q08345)
[21] = target: SNRK (human) (UniProt Q9NRH2)
SNRK (human), sequence (Q9NRH2 whole entry, looked up): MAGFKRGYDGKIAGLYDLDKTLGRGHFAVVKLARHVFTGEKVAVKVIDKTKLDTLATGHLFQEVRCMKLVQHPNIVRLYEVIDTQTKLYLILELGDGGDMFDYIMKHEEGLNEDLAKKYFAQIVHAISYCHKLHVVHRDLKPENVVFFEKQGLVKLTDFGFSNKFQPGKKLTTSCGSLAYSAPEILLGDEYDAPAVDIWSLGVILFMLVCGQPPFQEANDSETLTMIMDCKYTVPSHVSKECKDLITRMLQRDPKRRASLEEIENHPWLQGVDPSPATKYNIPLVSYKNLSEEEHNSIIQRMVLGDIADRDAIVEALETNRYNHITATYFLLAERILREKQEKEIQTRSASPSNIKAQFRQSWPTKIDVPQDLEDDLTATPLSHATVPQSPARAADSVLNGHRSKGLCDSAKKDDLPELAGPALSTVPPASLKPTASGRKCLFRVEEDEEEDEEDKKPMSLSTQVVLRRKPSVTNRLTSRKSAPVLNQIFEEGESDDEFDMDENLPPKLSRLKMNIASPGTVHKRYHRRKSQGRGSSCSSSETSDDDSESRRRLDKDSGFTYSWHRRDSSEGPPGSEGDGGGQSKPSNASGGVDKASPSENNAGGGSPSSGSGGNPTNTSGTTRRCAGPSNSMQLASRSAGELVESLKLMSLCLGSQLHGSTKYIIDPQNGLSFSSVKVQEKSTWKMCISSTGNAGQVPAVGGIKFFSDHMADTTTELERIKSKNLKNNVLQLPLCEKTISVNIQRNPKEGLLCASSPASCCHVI

[22] = target: RIOK3 (human) (UniProt O14730)
[23] = target: STK3 (human) (UniProt Q13188)
[24] = target: BRSK1 (human) (UniProt Q8TDC3)
[25] = target: CAMKK2 (human) (UniProt Q96RR4)
CAMKK2 (human), sequence (Q96RR4 whole entry, looked up): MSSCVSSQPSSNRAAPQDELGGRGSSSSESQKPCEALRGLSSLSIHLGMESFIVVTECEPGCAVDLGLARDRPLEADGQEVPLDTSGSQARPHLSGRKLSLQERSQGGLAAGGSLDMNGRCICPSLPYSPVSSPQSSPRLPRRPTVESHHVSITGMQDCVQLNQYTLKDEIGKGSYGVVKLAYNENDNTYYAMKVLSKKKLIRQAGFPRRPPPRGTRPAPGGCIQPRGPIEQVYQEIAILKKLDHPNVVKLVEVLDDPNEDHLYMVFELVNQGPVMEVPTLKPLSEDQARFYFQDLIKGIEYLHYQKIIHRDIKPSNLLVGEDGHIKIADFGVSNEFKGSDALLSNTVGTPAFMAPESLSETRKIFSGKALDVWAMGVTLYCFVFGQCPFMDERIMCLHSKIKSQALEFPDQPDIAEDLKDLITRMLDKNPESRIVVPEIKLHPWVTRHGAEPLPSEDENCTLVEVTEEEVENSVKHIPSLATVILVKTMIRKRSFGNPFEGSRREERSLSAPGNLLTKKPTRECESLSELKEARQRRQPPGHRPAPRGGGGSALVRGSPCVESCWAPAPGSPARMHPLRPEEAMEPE

[26] = target: TESK1 (human) (UniProt Q15569)
TESK1 (human), sequence (Q15569 whole entry, looked up): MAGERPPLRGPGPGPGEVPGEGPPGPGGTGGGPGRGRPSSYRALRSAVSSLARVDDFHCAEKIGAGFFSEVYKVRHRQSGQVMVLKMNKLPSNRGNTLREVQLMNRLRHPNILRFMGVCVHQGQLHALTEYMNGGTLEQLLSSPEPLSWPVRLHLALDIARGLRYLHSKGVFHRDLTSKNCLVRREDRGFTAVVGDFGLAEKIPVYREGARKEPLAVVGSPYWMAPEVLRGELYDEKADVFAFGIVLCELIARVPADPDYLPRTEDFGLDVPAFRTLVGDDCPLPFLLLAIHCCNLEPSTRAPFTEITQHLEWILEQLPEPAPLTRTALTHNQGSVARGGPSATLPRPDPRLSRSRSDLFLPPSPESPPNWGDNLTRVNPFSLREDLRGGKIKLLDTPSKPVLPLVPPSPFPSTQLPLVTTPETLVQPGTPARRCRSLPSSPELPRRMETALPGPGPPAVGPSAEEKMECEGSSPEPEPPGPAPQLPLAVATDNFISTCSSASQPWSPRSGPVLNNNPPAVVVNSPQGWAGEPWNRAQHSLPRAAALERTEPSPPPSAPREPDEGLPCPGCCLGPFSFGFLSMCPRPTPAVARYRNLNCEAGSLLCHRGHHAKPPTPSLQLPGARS

[27] = target: JAK2 JH1 catalytic (human) (UniProt O60674)
[28] = target: HIPK4 (human) (UniProt Q8NE63)
[29] = target: TXK (human) (UniProt P42681)
[30] = target: ICK (human) (UniProt Q9UPZ9)
ICK (human), sequence (Q9UPZ9 whole entry, looked up): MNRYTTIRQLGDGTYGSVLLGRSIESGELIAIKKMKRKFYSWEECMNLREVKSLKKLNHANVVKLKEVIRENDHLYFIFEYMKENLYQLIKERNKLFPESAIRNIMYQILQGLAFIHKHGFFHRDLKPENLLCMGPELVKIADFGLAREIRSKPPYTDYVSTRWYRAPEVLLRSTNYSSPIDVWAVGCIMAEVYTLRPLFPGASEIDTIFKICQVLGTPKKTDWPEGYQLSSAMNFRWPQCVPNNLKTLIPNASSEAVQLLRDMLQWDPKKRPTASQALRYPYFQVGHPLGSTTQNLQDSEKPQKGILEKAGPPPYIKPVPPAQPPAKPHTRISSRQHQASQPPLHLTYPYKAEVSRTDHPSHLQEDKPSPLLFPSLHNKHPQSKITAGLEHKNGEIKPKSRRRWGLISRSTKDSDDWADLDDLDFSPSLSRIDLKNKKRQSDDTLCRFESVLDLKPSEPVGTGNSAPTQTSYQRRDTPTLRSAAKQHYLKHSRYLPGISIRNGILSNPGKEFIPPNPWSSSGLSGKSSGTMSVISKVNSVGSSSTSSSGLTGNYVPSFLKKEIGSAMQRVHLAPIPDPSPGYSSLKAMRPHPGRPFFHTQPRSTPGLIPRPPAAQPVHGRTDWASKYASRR

[31] = target: NUAK1 (human) (UniProt O60285)
[32] = target: STK10 (human) (UniProt O94804)
[33] = target: CDKL2 (human) (UniProt Q92772)
[34] = target: EGFR (human) (UniProt P00533)
[35] = target: IKBKE (human) (UniProt Q14164)
[36] = target: CSNK1E (human) (UniProt P49674)
[37] = test system: EGFR (human), P00533 [747-751 del / S ins]
[38] = target: MYO3B (human) (UniProt Q8WXR4)
[39] = target: STK24 (human) (UniProt Q9Y6E0)
STK24 (human), sequence (Q9Y6E0 whole entry, looked up): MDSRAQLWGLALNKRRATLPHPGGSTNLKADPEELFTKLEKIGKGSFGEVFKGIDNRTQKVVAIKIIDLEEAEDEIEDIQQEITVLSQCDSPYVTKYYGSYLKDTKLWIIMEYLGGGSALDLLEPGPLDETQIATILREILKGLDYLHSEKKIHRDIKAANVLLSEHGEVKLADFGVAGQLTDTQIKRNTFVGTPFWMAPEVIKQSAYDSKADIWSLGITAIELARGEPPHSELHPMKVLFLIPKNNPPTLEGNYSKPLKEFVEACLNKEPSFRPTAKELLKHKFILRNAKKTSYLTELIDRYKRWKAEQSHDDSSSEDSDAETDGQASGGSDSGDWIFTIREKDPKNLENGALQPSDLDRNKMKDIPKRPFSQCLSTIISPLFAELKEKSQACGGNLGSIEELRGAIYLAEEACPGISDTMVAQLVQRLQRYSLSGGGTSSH

[40] = target: MAP2K7 (human) (UniProt O14733)

Row | SMILES | kinase still bound, per cent of control [1] | kinase still bound, per cent of control [2] | kinase still bound, per cent of control [3] | kinase still bound, per cent of control [4] | kinase still bound, per cent of control [5] | kinase still bound, per cent of control [6] | kinase still bound, per cent of control [7] | kinase still bound, per cent of control [8] | kinase still bound, per cent of control [9] | kinase still bound, per cent of control [10] | kinase still bound, per cent of control [11] | kinase still bound, per cent of control [12] | kinase still bound, per cent of control [13] | kinase still bound, per cent of control [14] | kinase still bound, per cent of control [15] | kinase still bound, per cent of control [16] | kinase still bound, per cent of control [17] | kinase still bound, per cent of control [18] | kinase still bound, per cent of control [19] | kinase still bound, per cent of control [20] | also measured
1 | O=c1cc(N2CCOCC2)oc2c(-c3cccc4c3sc3ccccc34)cccc12 | 100% | 100% | 100% | 100% | 91% | 100% | 96% | 100% | 91% | 100% | 65% | 89% | 89% | 99% | 93% | 79% | 100% | 81% | 90% | 100% | kinase still bound, per cent of control [21]: 73%; kinase still bound, per cent of control [22]: 100%; kinase still bound, per cent of control [23]: 85%; kinase still bound, per cent of control [24]: 100%; kinase still bound, per cent of control [25]: 88%; kinase still bound, per cent of control [26]: 72%; kinase still bound, per cent of control [27]: 67%; kinase still bound, per cent of control [28]: 74%; kinase still bound, per cent of control [29]: 91%; kinase still bound, per cent of control [30]: 100%; kinase still bound, per cent of control [31]: 100%; kinase still bound, per cent of control [32]: 100%; kinase still bound, per cent of control [33]: 96%; kinase still bound, per cent of control [34]: 94%; kinase still bound, per cent of control [35]: 100%; kinase still bound, per cent of control [36]: 76%; kinase still bound, per cent of control [37]: 100%; kinase still bound, per cent of control [38]: 100%; kinase still bound, per cent of control [39]: 86%; kinase still bound, per cent of control [40]: 100%
2 | COc1cc(C(=O)N2CCC(N3CCN(C)CC3)CC2)ccc1Nc1ncc2c(n1)N(C)c1ccccc1C(=O)N2C | 100% | 100% | 96% | 46% | 98% | 88% | 100% | 100% | 100% | 62% | 88% | 100% | 94% | 83% | 59% | 100% | 87% | 69% | 60% | 100% | kinase still bound, per cent of control [21]: 94%; kinase still bound, per cent of control [22]: 85%; kinase still bound, per cent of control [23]: 71%; kinase still bound, per cent of control [24]: 81%; kinase still bound, per cent of control [25]: 31%; kinase still bound, per cent of control [26]: 82%; kinase still bound, per cent of control [27]: 70%; kinase still bound, per cent of control [28]: 100%; kinase still bound, per cent of control [29]: 91%; kinase still bound, per cent of control [30]: 90%; kinase still bound, per cent of control [31]: 47%; kinase still bound, per cent of control [32]: 100%; kinase still bound, per cent of control [33]: 100%; kinase still bound, per cent of control [34]: 84%; kinase still bound, per cent of control [35]: 96%; kinase still bound, per cent of control [36]: 95%; kinase still bound, per cent of control [37]: 100%; kinase still bound, per cent of control [38]: 83%; kinase still bound, per cent of control [39]: 87%; kinase still bound, per cent of control [40]: 100%
3 | CN(C)C/C=C/C(=O)Nc1ccc(C(=O)Nc2cccc(Nc3nccc(-c4cccnc4)n3)c2)cc1 | 58% | 56% | 90% | 80% | 53% | 2.6% | 1.1% | 100% | 100% | 100% | 78% | 64% | 73% | 34% | 70% | 100% | 70% | 60% | 88% | 100% | kinase still bound, per cent of control [21]: 66%; kinase still bound, per cent of control [22]: 13%; kinase still bound, per cent of control [23]: 100%; kinase still bound, per cent of control [24]: 100%; kinase still bound, per cent of control [25]: 16%; kinase still bound, per cent of control [26]: 74%; kinase still bound, per cent of control [27]: 8.4%; kinase still bound, per cent of control [28]: 8.6%; kinase still bound, per cent of control [29]: 67%; kinase still bound, per cent of control [30]: 62%; kinase still bound, per cent of control [31]: 61%; kinase still bound, per cent of control [32]: 100%; kinase still bound, per cent of control [33]: 33%; kinase still bound, per cent of control [34]: 100%; kinase still bound, per cent of control [35]: 76%; kinase still bound, per cent of control [36]: 56%; kinase still bound, per cent of control [37]: 87%; kinase still bound, per cent of control [38]: 100%; kinase still bound, per cent of control [39]: 100%; kinase still bound, per cent of control [40]: 80%
